Like-named read-outs stand apart in the source and are kept apart here. Where a SMILES comes first, the peptide text is derived from it. Where no end group is shown, it is not given here. [ ]: non-standard residue; d: D form. The star is where a group is joined. Hexanoyl = CCCCCC(=O)*; Aib = CC(C)(N)C(=O)O
Tests used:
[1] = Rat serum stability studies (remaining active peptide by DiscoveRx cAMP on CHO-VPAC2 cells); format: in vitro ADME
In short: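 Rat serum, 18 h: +aprotinin aliquot at 4° C, no-aprotinin aliquot at 37° C. Then 30 min RT step, supernatant removed, 1 h shaking at 300 rpm. DiscoveRx cAMP kit on CHO-VPAC2; EC50 from cAMP data vs standards.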

Normal Wistar rats = test: Delayed IVGTT; format: in vivo, rat; details: 10 μg/kg iv, glucose 30 minutes later
Protocol: Delayed IVGTT: Perform IVGTT as described above, making the following changes. After the initial blood sample, compound or vehicle is injected i.v. Glucose is injected i.v. 30 minutes later in a separate injection. Blood samples are taken immediately prior to administration of the compound, at 15 minutes after administration of the compound, and at 30 minutes after administration of the compound. The sample at 30 minutes after administration of the compound is taken immediately prior to glucose administration. Blood samples are drawn 2, 4, 6, 10, and 30 minutes after giving glucose (i.e. 32, 34, 36, 40 and 60 minutes after compound administration). The blood samples at 15 and 60 minutes are not essential to the study and not always taken. Aprotinin is added to the blood sample (250 kIU/ml blood). The serum is then analyzed for glucose and insulin using standard methodologies.
The assay uses a formulated and calibrated peptide stock in PBS. Normally, this stock is a prediluted 100 μM stock. However, a more concentrated stock with approximately 1 mg agonist per mL is used. The specific concentration is always known.

conscious Wistar rats = test: Oral glucose tolerance test (OGTT); format: in vivo, rat; details: for Effects on glucose, AUC(0-135 min) / Effects on insulin, AUC(0-75 min): OGTT (15 min)
Protocol: Oral Glucose Tolerance Test (OGTT):
The effect of a selective VPAC2 receptor peptide agonist (P31) on plasma insulin and glucose is evaluated during OGTT in conscious Wistar rats. The maximal dose of agonist is 10 μg/kg. Since the peptide is given intravenously and has a very short half-life, a delay between glucose and compound administrations is applied.

rat VPAC1 receptor = target: T1, rat VPAC1 receptor (Rattus norvegicus, UniProt P30083); test: DiscoveRx in vitro potency, CHO-PO cells transiently transfected with rat VPAC 1 receptor DNA; format: cell-based; design: expressed in transfected cells; host or cells: CHO-PO, transient
T1 sequence (P30083 31-459): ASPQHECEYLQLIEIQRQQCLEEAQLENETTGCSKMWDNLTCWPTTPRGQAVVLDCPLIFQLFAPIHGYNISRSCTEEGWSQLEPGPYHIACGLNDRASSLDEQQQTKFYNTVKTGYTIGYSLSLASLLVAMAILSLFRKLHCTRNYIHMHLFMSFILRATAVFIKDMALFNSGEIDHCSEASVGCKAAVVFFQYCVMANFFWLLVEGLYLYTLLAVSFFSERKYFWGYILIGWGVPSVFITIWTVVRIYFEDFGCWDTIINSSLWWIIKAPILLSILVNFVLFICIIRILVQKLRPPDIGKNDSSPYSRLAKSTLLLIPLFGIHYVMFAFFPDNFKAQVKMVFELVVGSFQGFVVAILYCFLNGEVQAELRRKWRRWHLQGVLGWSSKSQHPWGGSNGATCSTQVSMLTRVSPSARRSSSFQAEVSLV
Protocol: Also, the cells are washed twice. […] The stimuli are present for 30 minutes. Then, the assay buffer is gently removed.

human VPAC2 = target: T2, human VPAC2 (Homo sapiens, UniProt P41587); test: DiscoveRx cAMP in vitro potency, CHO-S cell line stably expressing human VPAC2 receptor; format: cell-based; details: cAMP generation; mean of two independent runs
T2 construct: expressed in transfected cells
T2 sequence (P41587 24-438): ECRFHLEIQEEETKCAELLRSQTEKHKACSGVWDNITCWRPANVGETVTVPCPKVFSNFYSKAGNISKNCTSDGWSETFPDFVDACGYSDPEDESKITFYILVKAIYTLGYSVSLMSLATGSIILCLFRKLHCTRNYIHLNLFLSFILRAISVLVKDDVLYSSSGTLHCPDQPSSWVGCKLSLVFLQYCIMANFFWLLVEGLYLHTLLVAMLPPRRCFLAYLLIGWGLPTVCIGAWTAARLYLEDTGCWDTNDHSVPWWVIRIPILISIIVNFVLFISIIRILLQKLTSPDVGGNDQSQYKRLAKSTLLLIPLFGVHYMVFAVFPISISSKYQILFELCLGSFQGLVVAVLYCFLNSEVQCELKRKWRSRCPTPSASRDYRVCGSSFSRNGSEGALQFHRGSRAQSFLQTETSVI
Protocol: Also, the cells are washed twice. The cells are incubated in assay buffer plus IBMX for 15 minutes at room temperature. […] The stimuli are present for 30 minutes. Then, the assay buffer is gently removed. […] At day 3, the assay described above for the VPAC2 receptor cell line is performed.

rat PAC1 receptor = target: T3, rat PAC1 receptor (Rattus norvegicus, UniProt P32215); test: Adenylate cyclase assay on recombinant rat PAC1 receptor expressed in CHO cells; format: biochemical
T3 construct: expressed in transfected cells; host or cells: CHO cells, crude membranes
T3 sequence (P32215 20-523): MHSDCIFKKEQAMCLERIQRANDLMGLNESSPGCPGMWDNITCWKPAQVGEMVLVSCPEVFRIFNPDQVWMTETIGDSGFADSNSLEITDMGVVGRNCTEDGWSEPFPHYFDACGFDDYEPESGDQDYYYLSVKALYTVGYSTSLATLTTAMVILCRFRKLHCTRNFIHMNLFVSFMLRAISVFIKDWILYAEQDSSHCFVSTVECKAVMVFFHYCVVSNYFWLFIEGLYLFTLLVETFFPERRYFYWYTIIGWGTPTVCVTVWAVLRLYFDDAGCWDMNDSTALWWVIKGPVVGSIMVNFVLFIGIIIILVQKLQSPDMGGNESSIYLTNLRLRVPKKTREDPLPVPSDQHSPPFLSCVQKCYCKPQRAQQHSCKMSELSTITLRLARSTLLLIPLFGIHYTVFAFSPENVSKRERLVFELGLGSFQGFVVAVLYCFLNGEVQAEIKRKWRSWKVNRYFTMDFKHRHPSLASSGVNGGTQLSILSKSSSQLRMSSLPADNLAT
Protocol: All studies are performed on crude membranes prepared from three different cell cultures expressing the different recombinant receptors, using methodology that is known in the literature. Duplicate values are obtained for each assay.

[2] = Pharmacokinetic assay: active peptide levels in rat plasma after IV injection
Protocol: An IVGTT with glucose is given immediately after T=0 to 6 animals per condition. Samples are taken at 0, 2, 4, 6, and 10 minutes after injection.
For cell handling, Plate 50,000 cells/well and keep in culture over night. Wash cell twice in PBS and add 50 μl/well stimulation medium consisting of PBS+1.2 MgCl2, 1.3 CaCl2, 2 glucose and 0.5 IBMX. Incubate 15 minutes and add 50 μl/well of the plasma samples (see layout below). Incubate 30 minutes, remove the supernatant and proceed as normal with the DiscoveRx assay. Prepare plates in duplicate. Protease and peptidase inhibitor are present in all plasma samples.

[3] = Wistar, rat, plasma, iv, 10 ug/kg

CCCCCC(=O)N[C@@H](Cc1c[nH]cn1)C(=O)N[C@@H](CO)C(=O)N[C@@H](CC(=O)O)C(=O)N[C@@H](C)C(=O)N[C@H](C(=O)N[C@@H](Cc1ccccc1)C(=O)N[C@H](C(=O)N[C@@H](CC(=O)O)C(=O)N[C@@H](CC(N)=O)C(=O)N[C@@H](Cc1ccc(O)cc1)C(=O)N[C@H](C(=O)N[C@@H](CCCNC(=N)N)C(=O)N[C@@H](CC(C)C)C(=O)N[C@@H](CCCNC(=N)N)C(=O)NC(C)(C)C(=O)N[C@@H](CCC(N)=O)C(=O)N[C@@H](CC(C)C)C(=O)N[C@@H](C)C(=O)N[C@@H](C)C(=O)NC(C)(C)C(=O)N[C@@H](CCCCN)C(=O)N[C@@H](Cc1ccc(O)cc1)C(=O)N[C@@H](CC(C)C)C(=O)N[C@@H](CCC(N)=O)C(=O)N[C@@H](CO)C(=O)N[C@H](C(=O)N[C@@H](CCCCN)C(=O)N[C@@H](CC(N)=O)C(=O)N[C@@H](CCCCN)C(=O)NCC(=O)NCC(=O)N1CCC[C@H]1C(=O)N[C@@H](CO)C(=O)N[C@@H](CO)C(=O)NCC(=O)N[C@@H](C)C(=O)N1CCC[C@H]1C(=O)N1CCC[C@H]1C(=O)N1CCC[C@H]1C(=O)N[C@@H](CO)C(=O)O)[C@@H](C)CC)[C@@H](C)O)[C@@H](C)O)C(C)C [Agonist P292] (Hexanoyl-HSDAVFTDNYTRLR[Aib]QLAA[Aib]KYLQSIKNKGGPSSGAPPPS-OH; C-terminus assumed)
Rat Serum Stability (estimated purity in % after 18 hours) [1]: 33.43%

Hexanoyl-HSDAVFTDNYTRLR[Aib]QVAA[Aib]KYLQSIKNKRYGGPSSGAPPPS [Agonist P261]
Rat Serum Stability (estimated purity in % after 18 hours) [1]: 27.06%

Hexanoyl-HSDAVFTDNYTRLRKQVAAKKYLQSIKNKRYGGPSSGAPPPS [Agonist P31]
Effects on glucose (Normal Wistar rats): None | Effects on insulin, AUC(0-10 min) (Normal Wistar rats): +91% AUC(0-10 min) | Effects on glucose, AUC(0-135 min) (conscious Wistar rats; #1, 10 μg/kg iv): −22% AUC(0-135 min) | Effects on insulin, AUC(0-75 min) (conscious Wistar rats; #1, 10 μg/kg iv): +71% AUC(0-75 min) | Effects on glucose, AUC(0-135 min) (conscious Wistar rats; #2, 0.5 μg/kg iv): −5% AUC(0-135 min) | Effects on insulin, AUC(0-75 min) (conscious Wistar rats; #2, 0.5 μg/kg iv): +16% AUC(0-75 min) | Effects on glucose, AUC(0-135 min) (conscious Wistar rats; #2, 10 μg/kg iv): −2% AUC(0-135 min) | Effects on insulin, AUC(0-75 min) (conscious Wistar rats; #2, 10 μg/kg iv): +17% AUC(0-75 min) | Effects on insulin, AUC(0-90 min) (conscious Wistar rats; OGTT (30 min), 10 μg/kg iv): +85% AUC(0-90 min) | Effects on glucose, AUC(0-150 min) (conscious Wistar rats; OGTT (30 min), 10 μg/kg iv, (NS)): −1% AUC(0-150 min) | EC50 (rat VPAC1 receptor): 0.44 nM | EC50 (human VPAC2): 0.11 nM

Hexanoyl-HSDAVFTDNYTRLLAKLALQKYLQSIKNKRYGGPSSGAPPPS [Agonist P119]
EC50 (rat VPAC1 receptor): 0.07 nM | EC50 (human VPAC2): 0.34 nM

Hexanoyl-HSDAVFTDNYTRLR[Aib]QVAAK[Aib]YLQSIKNKRYGGPSSGAPPPS [Agonist P264]
Rat Serum Stability (Estimated purity in % after 72 hours) [1]: 0.9% | Rat Serum Stability (estimated purity in % after 18 hours) [1]: 19.22%

H-MHSDAVFTDNYTRLRKQVAAKKYLQSIKNKRYGGPSSGAPPPS [Agonist P104]
potency ratio compared to PACAP-27 (rat PAC1 receptor): > 1000 | Rat Serum Stability (estimated purity in % after 18 hours) ([1]; 10 μM peptide in rat serum, 37° C., 18 hours, versus 4° C. aliquot with aprotinin): 1.01% | AUC(0-t) [2, 3]: 0.355 nM·h | Cmax [2, 3]: 3.19 nM | half-life [2, 3]: 2.35 min | Exposure (10 μg/kg); clearance in μg/(min * nM * kg) ([2]; rat plasma, 10 μg/kg i.v.): 0.87 µg/min/nM/kg | Exposure (10 μg/kg, Vdist in μg/(nM * kg)) ([2]; rat plasma, 10 μg/kg i.v.): 2.64 µg/nM/kg

— US20080026996A1, “Selective Vpac2 Receptor Reptide Agonists” (ELI LILLY AND COMPANY, priority 2004, published 2008)
